Measurements from US7182884B2, “Bio-liquid crystal polymer and shaped material using same” (Toyoda Gosei Co., Ltd., priority 2003, dated 2007).

Assay: solubility of the bio-liquid crystal polymer in solvents
Format: physicochemical
Set-up: key: +a: soluble only when heated; +: dissolved; −: not dissolved

For `O=C(O)/C=C/c1ccc(O)cc1` [4HCA, 4-hydroxycinnamic acid], the solubility (solvent DMF) was “+”, the solubility (solvent DMSO) was “+” and the solubility (solvent NMP) was “+”. For the same compound, the solubility (solvent THF) was “+”, the solubility (solvent acetone) was “+” and the solubility (solvent acetonitrile) was “+”. For the same compound, the solubility (solvent chloroform) was “−”, the solubility (solvent ethanol) was “+” and the solubility (solvent hexane) was “−”. The solubility (solvent methanol) was “+”, the solubility (solvent pentafluorophenol) was “+” and the solubility (solvent toluene) was “−”. The solubility (solvent water) was “^+a”.
